Series [1] relates to Peptic ulcer due to pyloric ligation. The series can be described thus: Effect on peptic ulcer due to pyloric ligation. The format is in vivo, male rats. The following applies: intraperitoneal, rats; for Ulcer coefficient: 100 mg/kg, just after ligation, 15 hours; for inhibition in vivo at 100 mg/kg: Rattus norvegicus, ip, 15 h, control ulcer coefficient 42.0 mm^2, read-out: Rate of suppression of ulcer. The procedure: Just after subjecting to ligation, each of the present compound suspended in an aqueous physiological saline solution was intraperitoneally administered to each rat, the control being injected with an aqueous physiological saline solution. Then, after 15 hours of fasting without taking water, the rats were sacrificed with ether and their stomachs were removed to examine under a microscope for anatomy. The length and width of the thus-formed ulcer in the stomach were determined and expressed by the product (mm^2), and the total sum of the products was represented as the ulcer coefficient.

Series [2] concerns Peptic ulcer due to acetic acid. The experiment in a line: Effect on peptic ulcer due to acetic acid (duodenal). The following applies: for Ulcer coefficient: orally 3 times a day for 10 days from third day; for inhibition in vivo at 100 mg/kg: Rattus norvegicus, po, 240 h, read-out: Rate of suppression of ulcer. It is filed as in vivo, male rats. The procedure: To the control group, only the aqueous physiological saline solution was administered. After the administration was over, the rats were sacrificed with ether, and their duodenum was removed to observe under a microscope for anatomy. The length and width of the thus-formed ulcer were measured and their product (expressed with mm^2) was recorded as the ulcer coefficient.

Series [3] in a line: Acute toxicity test, oral. The following applies: mouse, in vivo, p.o., female ICR-mice, mortality for a week, Litchfield-Wilcoxon. The method, then:
Ten animals per group were kept in a transparent polycage at room temperature of 23°±1° C., and RH of 60 to 70%.
After minutely pulverizing each one of the present compounds, the pulverized compound was suspended in an aqueous 5% sodium carboxymethylcellulose solution containing 20% of Tween-80. The aqueous suspension was forcibly orally administered by a metal stomach tube, the dose rate having been adjusted by changing the concentration of the present compound in the aqueous suspension.

The subject of the next series is peptic ulcer. To be noted: cited from earlier work.
[4] abbreviates: 100 mg/kg, orally 3 times a day for 10 days, rats, control ulcer coefficient 9.0 mm^2.

Read-outs that look alike come from different tables or passages of the source.

`CNC(=O)c1sc(-c2cc(OC)c(OC)c(OC)c2)nc1C` [Compound 1, 2-(3,4,5-trimethoxyphenyl)-4-methylthiazole-5-methylcarboxamide]: the Ulcer coefficient is listed as 14.7 mm^2 in series [1] and 3.1 mm^2 in series [2] (100 mg/kg, rats). Moreover, the inhibition in vivo at 100 mg/kg turned out to be 65% in series [1] and 65.6% in series [2] (setting [4]).

For orientation: LD50 means the dose expected to kill half of the subjects tested. For `CCCNC(=O)c1sc(-c2cc(OC)c(OC)c(OC)c2)nc1C` [Compound 2, 2-(3,4,5-trimethoxyphenyl)-4-methylthiazole-5-n-propylcarboxamide], the Ulcer coefficient turned out to be 6.3 mm^2 in series [1] and 2.7 mm^2 in series [2] (100 mg/kg, rats). Besides, the values for the inhibition in vivo at 100 mg/kg in series [1] and in series [2] (setting [4]) were 85% and 70%, respectively. Also, the LD50 at 168 h in series [3] came out at 5600 mg/kg.

With `COc1ccc(-c2nc(C)c(C(N)=O)s2)cc1OC` [Compound 3, 2-(3,4-dimethoxyphenyl)-4-methylthiazole-5-carboxamide], the Ulcer coefficient in series [1] is on record as 0.8 mm^2; in series [2] (100 mg/kg, rats), 1.3 mm^2. The inhibition in vivo at 100 mg/kg in series [1] is 98.1%; in series [2], 85.6%.

`CNC(=O)c1sc(-c2ccc(OC)c(OC)c2)nc1C` [Compound 4, 2-(3,4-dimethoxyphenyl)-4-methylthiazole-5-methylcarboxamide]: the Ulcer coefficient in series [1] is reported as 11.0 mm^2; in series [2] (100 mg/kg, rats) it was 1.8 mm^2. The results for the inhibition in vivo at 100 mg/kg in series [1] and in series [2] (setting [4]) were 73.8% and 80%, respectively.

For `CCCNC(=O)c1sc(-c2ccc(OC)c(OC)c2)nc1C` [Compound 5, 2-(3,4-dimethoxyphenyl)-4-methylthiazole-5-n-propylcarboxamide], the Ulcer coefficient is given as 8.4 mm^2 in series [1] and 2.9 mm^2 in series [2] (100 mg/kg, rats). The inhibition in vivo at 100 mg/kg was determined as 80% in series [1] and 67.8% in series [2] (setting [4]).

With `COc1ccccc1-c1nc(C)c(C(N)=O)s1` [Compound 6, 2-(2-methoxyphenyl)-4-methylthiazole-5-carboxamide], the Ulcer coefficient in series [1] is 1.2 mm^2; in series [2] (100 mg/kg, rats) it was 2.1 mm^2. The inhibition in vivo at 100 mg/kg in series [1] amounted to 97.1%; in series [2] (setting [4]), 76.7%.

In the case of `CNC(=O)c1sc(-c2ccccc2OC)nc1C` [Compound 7, 2-(2-methoxyphenyl)-4-methylthiazole-5-methylcarboxamide], the Ulcer coefficient is reported as 8.6 mm^2 in series [1] and 1.7 mm^2 in series [2] (100 mg/kg, rats). Also, the inhibition in vivo at 100 mg/kg in series [1] was found to be 79.5%; in series [2] (setting [4]), 81.1%.

As for `CCCNC(=O)c1sc(-c2ccccc2OC)nc1C` [Compound 8, 2-(2-methoxyphenyl)-4-methylthiazole-5-n-propylcarboxamide], the Ulcer coefficient in series [1] came to 9.0 mm^2; in series [2] (100 mg/kg, rats), 3.2 mm^2. The inhibition in vivo at 100 mg/kg stood at 78.6% in series [1] and 64.4% in series [2] (setting [4]).

Consider `COc1ccc(-c2nc(C)c(C(N)=O)s2)cc1` [Compound 9, 2-(4-methoxyphenyl)-4-methylthiazole-5-carboxyamide], for which the Ulcer coefficient is recorded as 0.9 mm^2 in series [1] and 2.0 mm^2 in series [2] (100 mg/kg, rats). Besides, the inhibition in vivo at 100 mg/kg in series [1] is 97.9%; in series [2] (setting [4]), 77.8%.

Turning to `CNC(=O)c1sc(-c2ccc(OC)cc2)nc1C` [Compound 10, 2-(4-methoxyphenyl)-4-methylthiazole-5-methylcarboxamide], the Ulcer coefficient in series [1] amounted to 6.4 mm^2; in series [2] (100 mg/kg, rats), 3.1 mm^2. Besides, the inhibition in vivo at 100 mg/kg in series [1] was found to be 84.8%; in series [2] (setting [4]), 65.6%.

As for `CCCNC(=O)c1sc(-c2ccc(OC)cc2)nc1C` [Compound 11, 2-(4-methoxyphenyl)-4-methylthiazole-5-n-propylcarboxamide], the Ulcer coefficient in series [1] amounted to 8.5 mm^2; in series [2] (100 mg/kg, rats), 2.5 mm^2. Further, the inhibition in vivo at 100 mg/kg amounted to 79.8% in series [1] and 72.2% in series [2] (setting [4]).

Take `CC(C)=CCCC(C)=CCCC(C)=CCCC(=O)OCC=C(C)CCC=C(C)C` [Gefarnate, 3,7dimethyl-2,6-octadienyl 5,9,13trimethyl-4,8,12-tetradecatrienoate, reference compound]: the Ulcer coefficient in series [1] was 36.9 mm^2; in series [2] (100 mg/kg, rats), 7.2 mm^2. In addition, the inhibition in vivo at 100 mg/kg in series [1] came to 12.1%; in series [2] (setting [4]), 20%. Besides, the “Effectiveness / curative effect” value in series [2] (in words, rats) was “only a slight effectiveness is recognized”.

In the case of `CC1(C)[C@@H](OC(=O)CCC(=O)O)CC[C@]2(C)[C@H]3C(=O)C=C4[C@@H]5C[C@@](C)(C(=O)O)CC[C@]5(C)CC[C@@]4(C)[C@]3(C)CC[C@@H]12` [carbenoxolone], in the series with peptic ulcer (background statement), the “Accelerating effect on the ulcer-curing” value is given as “excellent accelerating effect on the ulcer-curing”. Moreover, the Side effects result with peptic ulcer (in vivo) is “aldosterone-like side effects to cause hypertension and weakening of muscular function”.
